Measured values: patent publication US11357786B2, “Synthetic disugar hydrocarbons as natural analogs to control microbial behaviors” (Syracuse University, priority 2014, dated 2022)
“Also recorded” adds a separate entry of the source.

Columns and labels:
Type in all cases: cell-based, Pseudomonas aeruginosa
[1] = system: PAO1 biofilm; test: Crystal violet dye based biofilm inhibition assay, maltose derivatives (Example 1); conditions: 110 μM, 24 h, CV assay
Method: A crystal violet (CV) assay was used to measure the amount of PAO1 biofilm formed after 24 h of bacterial inoculation. The fluorescence of green fluorescent proteins (GFP) expressed by PAO1-GFP was measured to directly quantify bacterial adhesion on polystyrene black 96 well plates with and without maltose derivatives after 2 h of bacterial inoculation. To evaluate the potential of maltose derivatives as both anti-biofilm and anti-adhesion agents, they were compared to a brominated furanone (BF8) known to inhibit biofilm formation, and two generic surfactants, sodium dodecyl sulfate (SDS) and tetra (ethylene glycol) monododecyl ether (C12EG4OH). […] P. aeruginosa strain PAO1-EGFP that constitutively producing green fluorescent protein was allowed to form biofilm on sterile steel coupons.
Inhibitory effect of all the maltose hydrocarbons on P. aeruginosa biofilm formation was determined by crystal violet dye based biofilm inhibition assays. Overnight culture of wild type P. aeruginosa (PAO1) was sub cultured to an OD600 of 0.01 into the 95:5 M9+:Lb medium. 200 μL of the sub culture was aliquoted into the wells of 96 well polystyrene microtiter plate when it reached the OD600 of 0.1. Predetermined concentrations of the test compounds were then added to the respective wells containing sub culture. Sample plates were wrapped in GLAD Press n′ Seal® followed by incubation under stationary conditions for 24 h at 37° C. After incubation the media was discarded and the plates were washed with water and dried for 1 h at 37° C. The sample plates were stained with 200 μL of 0.1% aqueous solution of crystal violet (CV) and followed by incubation at ambient temperature for 20 min. The CV stain was then discarded and the plates were washed with water. The remaining biofilm adhered stain was re-solubilized with 200 μL of 30% acetic acid. After the stain was dissolved (15 minutes), 100 μL of the solubilized CV was transferred from each well into the corresponding wells of a new polystyrene microtiter dish. Biofilm inhibition was quantified by measuring the OD600 of each well in which a negative control lane wherein no biofilm was formed served as a background and was subtracted out. The percent inhibition was calculated by the comparison of the OD600 for biofilm grown in the absence of compound (control) versus biofilm grown in the presence of compound under identical conditions.
Predetermined amounts maltose derivatives stock solution was added to the 200 μL bacterial culture in 96 well plate so that the final concentration of the agent reaches the desired values of 1, 5, 10, 20, 40, 85, 113, 140 μM. Biofilm inhibition and dispersion assay was carried as described previously.

[2] = system: nonswarming P. aeruginosa mutant rhlA; test: Swarming motility of nonswarming rhlA mutant on soft agar (reactivation / agonist assay); conditions: for Swarming motility of rhlA mutant: 85 μM in soft agar (0.5%), 24 h
From the text: Using nonswarming mutant to screen for swarming agonists and wild type P. aeruginosa for swarming antagonists. The transposon mutant, rhlA (genotype, rhlA-E08:ISphoA/hah)39 of P. aeruginosa (PAO1), that impairs the gene that is responsible for synthesizing rhamnolipids is completely incapable of a swarming motility. […] Based on this inference, a rhlA mutant was used in a swarming experiment to screen the saccharide-hydrocarbons for agonists that can reactivate the swarming motility of rhlA.
(§1) Swarm agar plates were based on M8 medium supplemented with 0.2% glucose, 0.5% casamino acid, 1 mM MgSO4 and […]. 17 For each set of experiment all the swarm plates were poured from same batch of agar and allowed to dry for 1 h before inoculation of bacteria. Bacterial culture (3 μl) (wild type PAO1 or rhlA mutant) with OD600 between […] was inoculated on the solidified agar plates. Swarm agar plates were incubated at 37° C. for 12 h and then incubated for additional 12 h at room temp. Chronological images of swarm plates were taken using a camera. To measure swarming area, sizes of the petridish in all swarming images were adjusted to a pre-assigned diameter and images were printed on copying paper (Xerox-business 4200). Weight of a 1 cm^2 copy paper square was roughly ˜8.0 mg. swarming images on the copy paper were cut and weighed, the swarm area was calculated by dividing the weight of image by weight of 1 cm^2 square (8 mg).
(§2) Swarm agar plates were made using M8 medium supplemented with 0.2% glucose, 0.5% casamino acid, 1 mM MgSO4 and solidified with 0.5% Bacto agar. 24 Bacterial culture with OD600 between 0.4 to 0.6 was inoculated as 3 μl aliquots. Swarm agar plates were incubated at 37° C. for 12 h and then incubated for additional 12 h at rt. For each set of experiment all the swarm plates were poured from same batch of agar and allowed to dry for 1 h before inoculation of bacteria.

[3] = system: 1-day old PAO1 biofilm; test: Crystal violet assay for dispersion of 1-day old biofilm, DSHs (Examples 2 and 4); conditions: 160 μM, another 24 h
Method: (§3) The effect that DSHs have on the adhesion of PAO1-EGFP on polystyrene surface (microtiter plate) was also examined. PAO1-EGFP is a P. aeruginosa strain that constitutively expresses green fluorescent protein. In the adhesion assays, PAO1-EGFP was grown in microtiter plate for 24-hours in LB-media with (160 μM) or without DSHs. After 24-hours, the fluorescent signal obtained from surface adhered PAO1-EGFP was measured. Percent reduction in fluorescence was calculated by comparing fluorescent signal from PAO1-EGFP grown in LB-media with the signal from wells that had DSHs (FIG. 29A). To study the effect of DSHs on biofilm formation, Pseudomonas aeruginosa (PAO1) was grown in LB-media with (160 μM) or without DSHs at 37° C. under static conditions within wells of microtiter plates. After 24 hours, the surface attached biofilms adhering to the bottom of the wells were stained with crystal-violet dye and the biofilm was quantified by measuring absorbance at 600 nm (OD600). The percent inhibition was calculated by comparing biofilm content of wells with no added agents (control) with the biofilm content from wells that had 160 μM of DSHs (FIG. 29A). Similar to inhibition, the surface attached biofilm after dispersion with DSHs was quantified with crystal-violet staining and absorbance measurement at 600 nm, except that for dispersion, biofilm was first grown for 1 day in just LB-media without any DSHs after which DSHs were added and plates were incubated for additional 24 hours followed by quantification (FIG. 29B).
Crystal violet based assay for quantifying dispersion of 1-day old PAO1 biofilms were Plate for set up similar to inhibition assay with a slight modification. Wells of the micro-titer plate was inoculated with (200 μL) bacterial subculture (PAO1 subculture OD600 ˜0.1). The plates were incubated at 37° C. for 24 hours to allow biofilm formation. After 24 hours, bacterial culture was gently pipetted out and appropriate volume of DSH were added followed by addition of fresh LB medium (200 μL). The microtiter plate was incubated for an additional 24 hours at 37° C., following which, similar to work up of inhibition assay, culture was removed, wells were washed and CV-dye was introduced, followed by washing and destaining with 30% AcOH solution in water and quantification at 600 nm. Here again, only the surface attached biofilm dispersed was reported by comparing wells with DSHs with wells with no agent.
Dose dependence assays for biofilm inhibition and dispersion. […] Both for biofilm inhibition and dispersion, predetermined volumes of DSH stocks were added to the assigned wells to span a concentration range between 0.5 μM-170 μM. Percent biofilm inhibition of dispersion was calculated by comparing to wells with no agent. The percent biofilm inhibition or dispersion was plotted versus concentration of DSHs. The linear values were logarithmically curve fitted using equation […]. The half maximal inhibitory concentration for both biofilm inhibition and dispersion (IC50 and DC50) were thus obtained.

[4] = system: wild type PAO1; test: Swarming motility of wild type PAO1 on soft agar (antagonist assay); conditions: for Swarming motility of wild type PAO1: 85 μM in soft agar, 24 h; for Effect on PAO1 swarming: concentration not given
Method: In contrast, the wild type P. aeruginosa produces the rhamnolipids and is capable of swarming on soft agar gel (˜0.5% agar). […] We note that saccharide hydrocarbons may also promote the swarming motility, but such promotions are less unambiguous than the inhibition for wild type PAO1. Such promotion will be unambiguous in the agonist assay using the nonswarming mutant rhlA.
as §1, §2

[5] = system: PAO1 biofilm; test: Crystal violet based static biofilm inhibition assay, DSHs in LB media (Examples 2 and 4); conditions: for Inhibition of PAO1 biofilm formation (surface attached): 160 μM, 24 h, LB media; for Anti-biofilm activity (biofilm inhibition): concentration not given
Method: The ability of DSHs was tested to inhibit Pseudomonas aeruginosa adhesion, biofilm and to disperse pre-formed biofilm. To quantify the amount of PAO1/EGFP attached on the surface of micro titer plates with or without the synthesized DSHs, fluorescence emitted by green fluorescent proteins (GFP) was quantified (see supporting info for details). Crystal violet (CV) based static biofilm assay (see supporting info) was used to screen the anti-biofilm potencies of all synthesized agents. Both surface attached (SA) (FIG. 17) and total (SA+air-liquid interface) biofilm of P. aeruginosa was quantified. […] CV assays were also used to quantify the amount of P. aeruginosa biofilm remaining after dispersion experiments (FIG. 19). Initially, all agents were screen for anti-biofilm activities (both inhibition and dispersion) at 160 μM. […] All reported biofilm inhibition results are an average of 4 identical wells.
as §3, with “The percent inhibition was calculated by comparing biofilm content of wells with no added agents (control) with the biofilm content from wells that had 160 μM of DSHs (FIG. 29A).” left out
Crystal violet (CV) based-biofilm inhibition assay. Inhibitory effect of all synthesized disaccharide hydrocarbons on biofilm formation of Pseudomonas aeruginosa (wild type PAO1) was determined by static biofilm inhibition assay using crystal violet staining. Overnight culture of PAO1 were sub cultured in LB media to OD600 of 0.01 and further the OD600 was allowed to reach ˜0.1. The bacterial sub-culture (200 μL) was then added into the wells of a microtiter plate. Predetermined concentrations of DSHs were added to respective wells containing sub culture by pipetting out fixed volume of sterile aqueous stock solutions (except DβL (7), SPOT, (15) and 2-ODαC (17), which were introduced as stocks prepared in H2O […] and EtOH (90:10) solutions). The microtiter plates were then wrapped in GLAD Press n′ Seal® (saran wrap) and further incubated under stationary conditions for 24 h at 37° C. After 24 h incubation, the culture media was discarded by pipetting carefully (without disrupting biofilm), the plate was then washed once with sterile water (200 μL) and allowed to dry at 37° C. for ˜30 mins. Microtiter plates were then stained with 0.1% aqueous solution of crystal violet (CV) (200 μL) at rt for ˜30 mins. Following this, the CV stain was removed and plate was again washed with sterile water (200 μL). Resultant CV stain in the well was then solubilized by adding 100 μL of 30% AcOH solution (in water) and mixing gently by pipetting.

## benzyl decyl β-maltoside [BDeβM]
[1]
  Inhibition of PAO1 biofilm: 50%
[2]
  Swarming motility of rhlA mutant: swarming motility with without well-defined tendrils

## CCCCCCCCCCC(CCCCCCCC)CO[C@@H]1O[C@H](CO)[C@@H](O[C@@H]2O[C@H](CO)[C@@H](O)[C@H](O)[C@H]2O)[C@H](O)[C@H]1O (stereo partly drawn) [2-ODβC (16), 2-octyl-dodecyl-β-cellobioside]
[3]
  Dispersion of 24-h old PAO1 biofilm: not active for biofilm inhibition or dispersion
[2]
  Swarming motility of rhlA mutant: no apparent effect on rhlA
[4]
  Swarming motility of wild type PAO1: inhibited the swarming motility of wild type PAO1
  Effect on PAO1 swarming: did exhibit inhibition of PAO1 swarming; also recorded: inhibits the swarming activities of PAO1; also recorded: PAO1 swarming inhibitors
[5]; listed as 16: 2-ODβC, 160 µM
  Inhibition of PAO1 biofilm formation (surface attached): ineffective at biofilm inhibition
[5]
  Anti-biofilm activity (biofilm inhibition): not effective at inhibiting the biofilm formation

## CCCCCCCCCCC(CCCCCCCC)CO[C@H]1O[C@H](CO)[C@@H](O[C@@H]2O[C@H](CO)[C@@H](O)[C@H](O)[C@H]2O)[C@H](O)[C@H]1O (stereo partly drawn) [2-ODαC (17), 2-octyl-dodecyl-α-cellobioside]
[3]
  Dispersion of 24-h old PAO1 biofilm: not active for biofilm inhibition or dispersion
[5]
  Inhibition of PAO1 biofilm formation (surface attached): not active for biofilm inhibition or dispersion
[5]; listed as 17: 2-ODαC, 160 µM
  Inhibition of PAO1 biofilm formation (surface attached): ineffective at biofilm inhibition

## CCCCCCCCCCC(CO[C@@H]1O[C@H](CO)[C@@H](O[C@H]2O[C@H](CO)[C@@H](O)[C@H](O)[C@H]2O)[C@H](O)[C@H]1O)Cc1ccc(C(C)(C)C)cc1 (stereo partly drawn) [4-tBuBDβM, 4-tertiary butyl benzyl dodecyl β-maltoside]
[1]
  Inhibition of PAO1 biofilm: 74%
[2]
  Swarming motility of rhlA mutant: did not exhibit any significant activation of swarming

## CCCCCCCCCCCO[C@@H]1O[C@H](CO)[C@@H](O[C@@H]2O[C@H](CO)[C@@H](O)[C@H](O)[C@H]2O)[C@H](O)[C@H]1O [UβC (3), undecyl-β-cellobioside]
[2]
  Swarming motility of rhlA mutant: strong reactivation of the swarming motility in rhlA mutant
[2]; concentration not given
  Reactivation of swarming motility of rhlA mutant: activated the swarming motility of rhlA mutant
[4]
  Swarming motility of wild type PAO1: causing significant amount of tendril formation
  Effect on PAO1 swarming: induced tendril formation in the swarming pattern of PAO1
[5]
  Anti-biofilm activity (biofilm inhibition): did not show significant inhibition of PAO1 biofilm
